Patent US12319655B2, “RAF kinase inhibitors and methods of use thereof” (Deciphera Pharmaceuticals, LLC, priority 2021, dated 2025)

Assays:
Miapaca-2 cells = experiment: MiaPaca-2 Cell Proliferation Assay (1); format: cell-based; conditions: Homo sapiens, MIA PaCa-2, single agent, read-out: MiaPaca2 (1) IC50
Method: MiaPaca-2 Cell Proliferation Assay (1)
Miapaca-2 cells (catalog #CRL-1420) are obtained from the American Type Culture Collect (ATTC, Manassas, VA). Briefly, cells were grown in DMEM supplemented with 10% characterized fetal bovine serum (Invitrogen, Carlsbad, CA), 2.5% New Zealand sourced horse serum and 1% Penicillin/Streptomycin/L-Glutamine at 37° C., 5% CO2, and 95% humidity. Cells are expanded until reaching 70-95% confluency at which point they are sub-cultured or harvested for assay use. A serial dilution of test compound is dispensed into a 96-well black clear bottom plate in triplicate. Three thousand cells are added per well in 200 μL complete growth medium in the 96-well plate. Plates are incubated for 67-72 h at 37° C., 5% CO2, and 95% humidity. At the end of the incubation, 40 μL of a 440 μM solution of resazurin (Sigma, St. Louis, MO) in PBS is added to each well of the plate and plates are incubated for an additional 5-6 h at 37° C., 5% CO2, and 95% humidity. Plates are read on a Synergy2 or equivalent reader (Biotek, Winooski VT) using an excitation of 540 nm and an emission of 600 nm. Data is analyzed using Prism software (GraphPad, San Diego, CA) to calculate IC50 values.

[1] = target: B-Raf (V600E) (SEQ. ID NO: 4) kinase (Homo sapiens (Human), UniProt P15056, V600E); experiment: Biochemical Assay for B-Raf (V600E) (1); conditions: Table J, BRAF V600E, assay version (1); read-out: BRAF VE (1) IC50
Summary of the method: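 Coupled pyruvate kinase/lactate dehydrogenase assay: 0.03 nM B-Raf V600E, 30.1 nM MEK, 1 mM ATP, pH 7.5 Tris/MgCl2 buffer, 1% DMSO. NADH oxidation followed at 340 nm for 6 h at 30 °C; rate from 3–4 h converted to percent inhibition, IC50 by four-parameter fit.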

Sequence of B-Raf (V600E) (SEQ. ID NO: 4) kinase (P15056 416-766 V600E): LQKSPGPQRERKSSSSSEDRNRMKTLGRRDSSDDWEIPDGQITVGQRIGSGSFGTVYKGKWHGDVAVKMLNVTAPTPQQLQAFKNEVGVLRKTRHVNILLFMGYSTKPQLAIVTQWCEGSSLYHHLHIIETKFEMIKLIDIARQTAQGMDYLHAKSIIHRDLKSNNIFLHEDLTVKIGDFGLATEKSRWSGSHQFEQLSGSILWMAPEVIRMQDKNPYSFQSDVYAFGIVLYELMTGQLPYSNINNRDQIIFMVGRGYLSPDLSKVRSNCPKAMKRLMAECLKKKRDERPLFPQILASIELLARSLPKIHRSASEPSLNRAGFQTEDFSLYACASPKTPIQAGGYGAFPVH

IC50 (Miapaca-2 cells) [nM] | IC50 [1] [nM] | Structure (SMILES)
1000 to 10000 | ≤ 100 | CC(=O)Nc1cc(-c2cc(-c3cc(NC(=O)c4ccnc(C(F)(F)F)c4)c(F)cc3C)cc(C)n2)ccn1 [Example 4]
1000 to 10000 | ≤ 100 | CCOc1cc(-c2cc(NC(=O)c3ccnc(C(F)(F)F)c3)ccc2C)cc(-c2ccnc(NC(C)=O)c2)n1 [Example 8]
1000 to 10000 | ≤ 100 | CC(=O)Nc1cc(-c2cc(-c3cc(NC(=O)c4ccnc(C(F)(F)F)c4)ccc3C)cc(=O)n2C)ccn1 [Example 11]
1000 to 10000 | ≤ 100 | Cc1ccc(NC(=O)c2ccnc(C(F)(F)F)c2)cc1-c1cncc(-c2ccnc(NC(=O)CC#N)c2)n1 [Example 98]
1000 to 10000 | ≤ 100 | COCC(=O)Nc1cc(-c2cncc(-c3cc(NC(=O)c4ccnc(C(F)(F)F)c4)ccc3C)n2)ccn1 [Example 99]
1000 to 10000 | ≤ 100 | Cc1ccc(NC(=O)c2ccnc(C(F)(F)F)c2)cc1-c1cncc(-c2ccnc(NC(=O)CN(C)C)c2)n1 [Example 100]
1000 to 10000 | ≤ 100 | CC(=O)Nc1cc(-c2cc(-c3cc(NC(=O)c4ccnc(C(F)(F)F)c4)ccc3C)cn(CCO)c2=O)ccn1 [Example 102]
1000 to 10000 | ≤ 100 | CNC(=O)c1cc(-c2cccc(-c3cc(NC(=O)c4ccnc(C(F)(F)F)c4)ccc3C)c2)ncn1 [Example 106]
1000 to 10000 | ≤ 100 | CC(=O)Nc1cc(-c2nccc(-c3cc(NC(=O)c4ccnc(C(F)(F)F)c4)c(F)cc3C)n2)ccn1 [Example 107]
1000 to 10000 | ≤ 100 | CC(=O)Nc1cc(-c2cncc(-c3cc(NC(=O)c4ccc(Cl)c(C(F)(F)F)c4)ccc3C)n2)ccn1 [Example 121]
1000 to 10000 | ≤ 100 | CC(=O)Nc1cc(-c2nccc(-c3cc(NC(=O)c4cc(C(F)(F)F)ccn4)ccc3C)n2)ccn1 [Example 153]

Continued, compound first:

Structure (SMILES) | IC50 (Miapaca-2 cells) [nM] | IC50 [1] [nM]
Cc1cc(F)c(NC(=O)c2ccnc(C(F)(F)F)c2)cc1-c1ccnc(-c2ccnc(NC(=O)CN(C)C)c2)c1 [Example 7] | 1000 to 10000 | ≤ 100
Cc1ncc(NC(=O)c2ccnc(C(F)(F)F)c2)cc1-c1cccc(-c2ccnc(N)c2)c1 [Example 94] | 1000 to 10000 | ≤ 100
COc1cc(C(=O)Nc2ccc(C)c(-c3cncc(-c4ccnc(NC(C)=O)c4)n3)c2)ccc1F [Example 120] | 1000 to 10000 | ≤ 100
CNC(=O)c1cc(-c2cc(-c3cc(NC(=O)c4cccc(C(C)(C)C#N)c4)ccc3C)ccn2)ccn1 [Example 127] | 1000 to 10000 | ≤ 100
CNC(=O)c1cc(-c2cncc(-c3cc(NC(=O)c4cc(C(F)(F)F)ccn4)ccc3C)n2)ccn1 [Example 135] | 1000 to 10000 | ≤ 100
CNC(=O)c1cc(-c2cncc(-c3cc(NC(=O)c4cccc(C(C)(C)C#N)c4)ccc3C)n2)ccn1 [Example 136] | 1000 to 10000 | ≤ 100
CNC(=O)c1cc(-c2cncc(-c3cc(NC(=O)c4ccnc(C5(C#N)CC5)c4)ccc3C)n2)ccn1 [Example 138] | 1000 to 10000 | ≤ 100
CNC(=O)c1cc(-c2cncc(-c3cc(NC(=O)c4ccnc(C5CC5)c4)ccc3C)n2)ccn1 [Example 139] | 1000 to 10000 | ≤ 100
Cc1ccc(NC(=O)c2ccnc(C(C)(C)C#N)c2)cc1-c1cncc(-c2ccnc(N)c2)n1 [Example 141] | 1000 to 10000 | ≤ 100
COCC(=O)Nc1cc(-c2cncc(-c3cc(NC(=O)c4ccnc(C(C)(C)C#N)c4)ccc3C)n2)ccn1 [Example 142] | 1000 to 10000 | ≤ 100
COCCNc1cc(-c2cncc(-c3cc(NC(=O)c4ccnc(C(C)(C)C#N)c4)ccc3C)n2)ccn1 [Example 143] | 1000 to 10000 | ≤ 100
CNc1cc(-c2cncc(-c3cc(NC(=O)c4ccnc(C(C)(C)C#N)c4)ccc3C)n2)ccn1 [Example 173] | 1000 to 10000 | ≤ 100
